Results taken from ChEMBL document CHEMBL1136651, “Structure-based de novo design of non-nucleoside adenosine deaminase inhibitors” (Bioorg Med Chem Lett, 2003).

How the values were obtained:
[1] = Pharmacokinetic property (C(max)) was determined after ip administration of 32 mg/kg in mice; format: ADME, organism-based; set-up: dose 32 mg/kg, route intraperitoneal; settings: mouse, in vivo
[2] = Pharmacokinetic property (AUC) was determined after ip administration of 32 mg/kg in mice; format: ADME, organism-based; set-up: dose 32 mg/kg, route intraperitoneal; settings: mouse, in vivo
[3] = Pharmacokinetic property (C(max)) was determined after po administration of 32 mg/kg in mice; format: ADME, organism-based; set-up: dose 32 mg/kg, route oral; settings: mouse, in vivo
[4] = Pharmacokinetic property (AUC) was determined after po administration of 32 mg/kg in mice; format: ADME, organism-based; set-up: dose 32 mg/kg, route oral; settings: mouse, in vivo
[5] = target: T1, Adenosine deaminase (Homo sapiens, UniProt P00813)
T1 sequence (P00813 whole entry): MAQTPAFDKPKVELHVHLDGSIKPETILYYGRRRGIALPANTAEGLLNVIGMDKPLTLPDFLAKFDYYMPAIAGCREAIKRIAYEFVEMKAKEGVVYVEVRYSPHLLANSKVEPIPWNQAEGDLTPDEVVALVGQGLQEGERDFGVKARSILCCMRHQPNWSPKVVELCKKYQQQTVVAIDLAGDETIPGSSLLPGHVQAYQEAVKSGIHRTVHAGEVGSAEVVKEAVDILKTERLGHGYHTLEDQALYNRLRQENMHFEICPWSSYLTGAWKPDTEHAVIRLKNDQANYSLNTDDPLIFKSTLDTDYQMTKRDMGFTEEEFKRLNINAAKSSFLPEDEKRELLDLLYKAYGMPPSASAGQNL
Description: Inhibition constant against human adenosine deaminase was determined

SMILES	Cmax [1]	AUC [2]	Cmax [3]	AUC [4]	Ki [5]
OC[C@H]1O[C@@H](n2cnc3c2NC=NC[C@H]3O)C[C@@H]1O [PENTOSTATIN]	12200 ng/mL	9500 ng·h/mL			
NC(=O)c1cn(C(CO)CCc2ccccc2)cn1 (stereo not given) [FR-221647]	25200 ng/mL	29600 ng·h/mL	15200 ng/mL	29900 ng·h/mL	
COC(=O)c1cn(C(CO)c2ccccc2)cn1 (stereo not given)					> 100 µM
OCc1cn(C(CO)c2ccccc2)cn1 (stereo not given)					> 100 µM
O=C(O)c1cn(C(CO)c2ccccc2)cn1 (stereo not given)					> 100 µM
NC(=O)c1cn(C(CO)c2ccccc2)cn1 (stereo not given)					54 µM
CCCCCC[C@@H]([C@@H](C)O)n1cnc2c(N)ncnc21 [EHNA]	5900 ng/mL	2200 ng·h/mL	1100 ng/mL	1000 ng·h/mL	0.0037 µM
